Read-outs that look alike come from different tables or passages of the source.
How the values were obtained:
RVV-V [1] = biological target: T1, RVV-V (Daboia siamensis, UniProt P18965); conditions: two-state fit
Experimental: The Russel viper venom was purchased from Irula Snake-Catchers Industrial Cooperative Society (ISCICS), Tamil Nadu, India. The RVV-V was purified as described by Shiffman et al., with some changes. Lyophilized Crude venom (100 mg) was dissolved in 1 ml of 50 mM Sodium Acetate buffer (pH 5.5). The solution was centrifuged at 12,000 rpm for 10 minutes at 4°C and the supernatant was loaded to Sephadex S-100 column (FPLC). Peaks containing the RVV-V were pooled and loaded for CM Sepharose FFCation Exchange (Pharmacia) column (equilibrated with 50 mM sodium acetate buffer pH 5.5). Proteins were eluted with 50mM Na-acetate buffer with gradient 0 to 1 M Sodium Chloride. The fractions of RVV-V were pooled, dialyzed in 50 mM sodium-acetate buffer, and concentrated. Further, the binding kinetics was performed for RVV-V with both the peptides (purchased from Genei™) by SPR method.
The SPR is a well-known primary protein-ligand screening method for the measurement of a real-time, label-free detection of biomolecular interactions like protein-peptide, antibody-antigen, and protein-DNA interactions. A small amount of protein is sufficient and the affinity data are more accurate as the recorded Sensorgram is time-dependent and a continuous flow system. In the experiment the ligand is saturated with an immobilized protein followed by washing, and the association constant (Ka), and the dissociation constant (Kd) are obtained from the binding response data. Biacore T200 optical biosensor was used to get the interaction kinetics of RVV-V with the peptides. The purified RVV-V (concentration of 50 μg/ml in 50 mM sodium acetate buffer, pH 5.5) was immobilized on CM5 chip by amine-coupling method. A constant flow rate of 10μl/min was used to activate the surface of the flow cell for 7 min using a 1:1 mixture of 100 mM N-hydroxysuccinimide (NHS) and 100 mM N-ethyl-N-(dimethylaminopropyl)-carbodiimide (EDC) dissolved in water. The RVV-V was injected for 7 min, and the non-activated carboxy methyl groups on the surface were blocked by 7 min injection of 1 M ethanolamine (pH 8.5) and totally 3000 RU of the RVV-V were immobilized on the chip.
Biacore control software was used for obtaining all data by monitoring the change in the refractive index as a function of time at a flow rate of 30 μl/min. A relative quantity of peptide bound to RVV-V was quantified by calculating the amount of net increase in the refractive index over a period as compared to the initial buffer (PBS) response. The inline subtraction is performed during each run. Before changing each peptide and the peptide-concentration, the surface of the sensor chips was washed by running the buffer (PBS) and the chip was regenerated by injecting 10 mM glycine pH 2.5 for 30 sec. The association and the dissociation times are 120 and 300 sec respectively. For both the peptides, the experiment was performed by changing the concentration of the peptides ranging from 62.5 uM to 1 mM.

RVV-V [2] = biological target: T1, RVV-V; conditions: ref [16], [17]; cited from earlier work
Excerpt: In general, serine proteases are robust and highly sensitive for the cleavage sites; they contain catalytic triad or diad in the active site. […] Both these proteins are active against different molecular substrates. The molecular structure and the catalytic triad arrangement of the RVV-V are analogous with that of the thrombin.

[3] = tested on: fibrinogen, prothrombin, factor VIII, and FX; conditions: ref [14], [15]; cited from earlier work
Excerpt: (§1) Both these proteins are active against different molecular substrates.

[4] = ref [16], [17]; cited from earlier work
Excerpt: as §1

Factor V = conditions: sites I, II and III of FV; ref [11]; cited from earlier work
Excerpt: Factor V (FV) is a well-studied large protein, consists of six domains, involved in the blood coagulation cascade. […] Both the proteins cleave the FV at three different sites of FV viz., site I (Arg709–Ser710), site II (Arg1018–Thr1019), and site III (Arg1545–Ser1546). Highly glycosylated B domain of FV is removed by these proteases to achieve an active form of FV.

T1 sequence (P18965 25-260): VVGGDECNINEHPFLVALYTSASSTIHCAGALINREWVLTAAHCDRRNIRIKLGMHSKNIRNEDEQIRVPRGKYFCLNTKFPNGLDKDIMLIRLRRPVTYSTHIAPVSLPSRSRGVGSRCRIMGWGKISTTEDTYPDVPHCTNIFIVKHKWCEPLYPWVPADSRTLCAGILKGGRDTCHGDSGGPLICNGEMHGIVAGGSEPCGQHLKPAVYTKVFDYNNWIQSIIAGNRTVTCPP

## 1008KHTHHAPLSPRTFHP1022 [Peptide II]
RVV-V [1]; Biacore T200, RVV-V immobilized on CM5 chip (amine coupling, 3000 RU), PBS, 30 μl/min, peptide 62.5 uM to 1 mM, association 120 s, dissociation 300 s
  ka1: 760.4 M⁻¹ s⁻¹
RVV-V [1]; Biacore T200, RVV-V on CM5 chip, PBS, peptide 62.5 uM to 1 mM, dissociation rate constant of first step
  Kd1: 2.414 s⁻¹
RVV-V [1]; Biacore T200, RVV-V on CM5 chip, PBS, peptide 62.5 uM to 1 mM, second step
  kd2: 0.001942 s⁻¹
RVV-V [1]; Biacore T200, RVV-V on CM5 chip, PBS, peptide 62.5 uM to 1 mM, second step (conformational change)
  ka2: 0.0002809 s⁻¹
RVV-V [1]; first (unstable) complex
  kd1: 2.414 s⁻¹
RVV-V [1]; first reaction
  ka1: 760.4 M⁻¹ s⁻¹
RVV-V [1]; second (more stable) complex
  kd2: 0.001942 s⁻¹
RVV-V [1]; second reaction
  ka2: 0.0002809 s⁻¹

## O=C(O)CN(CCN(CC(=O)O)CC(=O)O)CC(=O)O [EDTA]
RVV-V [2]
  response of RVV-V to serine protease inhibitor: no response

## Russell’s viper venom factor V activator [RVV-V]
[3]
  effect on structure or activity after prolonged incubation: no effect
[4]
  amidase activity: weak amidase activity
Factor V
  cleavage of FV sites: cleaving the site III and does not cleave the other two thrombin-susceptible sites
